Reference: US5326766A, “4-(2-(4-(2-pyridinyloxy)phenyl)ethoxy)quinazoline and analogues thereof” (priority 1992, dated 1994)

Tests used:
[1] = system: beet armyworm (Spodoptera exiqua); experiment: Activity against beet armyworm; assay type: in vivo; conditions: Spodoptera, 144 h, 6 days, read-out: BAW activity (rated on live and dead larvae and size of live larvae)
Procedure: (§1) The compounds identified in Table I were tested for miticidal and insecticidal activity against eight species. The following abbreviations are used in the Table III:
BAW refers to beet armyworm
(§2) In conducting evaluations of insecticidal activity, each test compound was formulated as a 400 ppm solution, and this solution was then diluted with water to give lesser concentrations. The 400 ppm solution was prepared by combining 19.2 mL of 0.05% solution of Tween 20 (polyoxyethylene (20) sorbitan monolaurate) in water with a solution of 8 mg of the compound in 0.8 mL of acetone/EtOH (9/1).
Activity against beet armyworm (Spodoptera exiqua) was evaluated as follows. The test is run using concentrations of 400 ppm and 50 ppm. A general purpose lepidoptera artificial diet was diluted to half strength with a 5% non nutritive agar. 8 mL of this diet material was dispensed into one ounce diet cups. One hour prior to treatment, 35 to 40 eggs were dispensed onto the diet surface. The cups were then sprayed with formulated material through a flat-fan nozzle. Treated cups were air dried prior to sealing with plastic caps. The cups were held for 6 days at room temperature. Activity was then rated based on the total number of live and dead larvae, and on the size of live larvae.

[2] = system: cotton aphid (Aphis gossypii); experiment: whole plant or invertebrate; conditions: 72 h; for mortality at 50 ppm: read-out: CA activity (percent based on aphids present in plants sprayed with solvent alone), 50 ppm, squash plants, three days after treatment; for mortality at 400 ppm: read-out: CA activity (percent based on aphids present in plants sprayed with solvent alone), 400 ppm, squash plants, three days after treatment
[3] = system: Pyricularia oryzae (rice blast); experiment: whole plant or invertebrate; assay type: in vivo; conditions: Pyricularia oryzae, foliar, read-out: PYRIOR disease control, host rice; foliar spray; 400 ppm (+++: 100 ppm)
[4] = system: two spotted spider mite (Tetranychus urticae); experiment: whole plant or invertebrate; conditions: 72 h; for mortality at 50 ppm: read-out: TSSM activity (percent based on mites present in plants sprayed with solvent alone), 50 ppm, squash plants, three days after treatment; for mortality at 400 ppm: read-out: TSSM activity (percent based on mites present in plants sprayed with solvent alone), 400 ppm, squash plants, three days after treatment
[5] = system: Leptosphaeria nodorum (glume blotch); experiment: Foliar spray fungicide test, Leptosphaeria nodorum (glume blotch) on wheat; conditions: Parastagonospora nodorum, in Triticum aestivum, foliar, read-out: LETPNO disease control, host wheat, 400 ppm (+++: 100 ppm)
Procedure: (§3) The test compounds were formulated for application by dissolving 50 mg of the compound into 1.25 ml of solvent. The solvent was prepared by mixing 50 ml of "Tween 20" (polyoxyethylene (20) sorbitan monolaurate emulsifier) with 475 ml of acetone and 475 ml of ethanol. The solvent/compound solution was diluted to 125 ml with deionized water. The resulting formulation contains 400 ppm test chemical. Lower concentrations were obtained by serial dilution with the solvent-surfactant mixture.
The formulated test compounds were applied by foliar spray.
(§4) The formulated technical compounds were sprayed on all foliar surfaces of the host plants to past run-off. Single pots of each host plant were placed on raised, revolving pedestals in a fume hood. Test solutions were sprayed on all foliar surfaces. All treatments were allowed to dry and the plants were inoculated with the appropriate pathogens within 24 hours.
(§5) The effectiveness of test compounds in controlling disease was rated using the following scale.

[6] = system: Erysiphe graminis tritici (powdery mildew); experiment: Foliar spray fungicide test, Erysiphe graminis tritici (powdery mildew) on wheat; conditions: Blumeria graminis, in Triticum aestivum, foliar, read-out: ERYSGT disease control, host wheat, 400 ppm (+++: 100 ppm)
Procedure: as §3
(§6) The formulated test compounds were applied by foliar spray. The following plant pathogens and their corresponding plants were employed.
as §4, §5

[7] = system: German cockroach (Blattella germanicus); experiment: whole plant or invertebrate; assay type: in vivo; conditions: 240 h, ten days, read-out: GECR activity (rated on live and dead insects)
Procedure: as §1
GECR refers to German cockroach
as §2
Activity against German cockroach (Blattella germanicus) was evaluated as follows. 8 mL of alfalfa based green insect diet material was dispensed into a one ounce diet cup. The cups were then sprayed with formulated material through a flat-fan nozzle. The test was run using concentrations of 400 ppm and 50 ppm. Treated cups were air dried for 24 hours and infested with five late third or early fourth instar German cockroaches. The cups were capped and held for ten days in an environmental growth chamber at a temperature of […]. Activity was then rated based on the total number of live and dead insects.

[8] = system: Southern corn rootworm (Diabrotica undecimpuctata howardi Barber); experiment: whole plant or invertebrate; assay type: in vivo; conditions: 400 ppm, soil concentration of 24 ppm, 3-4 days, read-out: SCRW mortality
Procedure: as §1
SCRW refers to southern corn rootworm
as §2
Activity on Southern corn rootworm (Diabrotica undecimpuctata howardi Barber) was evaluated by adding one mL of test solution containing a predetermined concentration of test compound to a cup containing a kernel of corn in 16 g of sterile soil. This produces a soil concentration of 24 ppm. After 1.5 to 2 hours of drying, five 4th instar corn rootworm larvae were added to the individual cups. Mortality was measured at 3-4 days by emptying the cup onto a pan and inspecting the soil for live rootworms.

[9] = system: Plasmopara viticola (downy mildew); experiment: Foliar spray fungicide test, Plasmopara viticola (downy mildew) on grape; conditions: Plasmopara viticola, foliar, read-out: PLASVI disease control
[10] = system: tobacco budworm (Heliothis virescens); experiment: Activity against tobacco budworm; assay type: in vivo; conditions: Heliothis virescens, 144 h, 6 days, read-out: TBW activity (rated on live and dead larvae and size of live larvae)
Procedure: as §1
TBW refers to tobacco budworm
as §2
Activity against tobacco budworm (Heliothis virescens) was evaluated as follows. A general purpose lepidoptera artificial diet was diluted to half strength with a 5% non nutritive agar. 8 mL of this diet material was dispensed into each one ounce diet cup. One hour prior to treatment 18 to 20 eggs were dispensed onto the diet surface. The cups were then sprayed with formulated material through a flat-fan nozzle. The test was run using concentrations of 400 ppm and 50 ppm. Treated cups were air dried prior to sealing with plastic caps. The cups were held for 6 days at room temperature. Activity was then rated based on the total number of live and dead larvae, and on the size of live larvae.

[11] = system: aster leafhopper (Macrosteles fascifrons); experiment: whole plant or invertebrate; assay type: in vivo; conditions: Macrosteles fascifrons, 24 h, read-out: ALH percent mortality
Procedure: as §1
ALH refers to aster leafhopper
as §2
Activity against aster leafhopper (Macrosteles fascifrons) was tested as follows. The test was run using concentrations of 400 ppm and 50 ppm. One ounce plastic cups containing a cotton wick was sprayed with 0.4 mL of formulated material using a flat-fan nozzle. The excess moisture was allowed to evaporate. Then five to ten carbon dioxide anesthetized adult leafhoppers were added to each cup. The cups were capped and held at room temperature for 24 hours. Percent mortality was then determined.

[12] = system: Puccinia recondita tritici (leaf rust); experiment: Foliar spray fungicide test, Puccinia recondita tritici (leaf rust) on wheat; conditions: Puccinia recondita, in Triticum aestivum, foliar, read-out: PUCCRT disease control, host wheat, 400 ppm (+++: 100 ppm)
Procedure: as §3, §6
Puccinia recondita PUCCRT wheat
as §4, §5

O=[N+]([O-])c1ccc(Oc2ccc(CCOc3ncnc4c(F)cccc34)cc2)nc1 [Compound 23]
pest or weed control at 50 ppm [1]: 100%
pest or weed control at 400 ppm [1]: 100%
mortality at 50 ppm [2]: 0%
mortality at 400 ppm [2]: 90%
pest or weed control at 400 µg/mL [3]: 20 to 89%
mortality at 50 ppm [4]: 0%
mortality at 400 ppm [4]: 50%
pest or weed control at 400 µg/mL [5]: 20 to 89%
pest or weed control at 400 µg/mL [6]: 20 to 89%
mortality at 50 ppm [7]: 0%
mortality at 400 ppm [7]: 40%
mortality at 24 ppm [8]: 0%
pest or weed control at 400 µg/mL [9]: 90 to 100%
pest or weed control at 50 ppm [10]: 100%
pest or weed control at 400 ppm [10]: 100%
mortality at 50 ppm [11]: 60%
mortality at 400 ppm [11]: 80%
pest or weed control at 400 µg/mL [12]: 90 to 100%

Fc1cccc2c(OCCc3ccc(Oc4ccc(C(Cl)(Cl)Cl)cn4)cc3)ncnc12 [Compound 25]
pest or weed control at 400 ppm [1]: 0%
mortality at 400 ppm [2]: 85%
pest or weed control at 400 µg/mL [3]: 20 to 89%
mortality at 400 ppm [4]: 90%
pest or weed control at 400 µg/mL [5]: 0 to 19%
pest or weed control at 400 µg/mL [6]: 20 to 89%
mortality at 400 ppm [7]: 0%
mortality at 24 ppm [8]: 0%
pest or weed control at 400 µg/mL [9]: 90 to 100%
pest or weed control at 400 ppm [10]: 100%
mortality at 400 ppm [11]: 0%
pest or weed control at 400 µg/mL [12]: 90 to 100%

ClC(Cl)(Cl)c1ccc(Oc2ccc(CCOc3ncnc4ccccc34)cc2)nc1 [Compound 26]
pest or weed control at 400 ppm [1]: 0%
mortality at 400 ppm [2]: 100%
pest or weed control at 400 µg/mL [3]: 20 to 89%
mortality at 400 ppm [4]: 100%
pest or weed control at 400 µg/mL [5]: 0 to 19%
pest or weed control at 400 µg/mL [6]: 0 to 19%
mortality at 400 ppm [7]: 0%
mortality at 24 ppm [8]: 0%
pest or weed control at 400 µg/mL [9]: 90 to 100%
pest or weed control at 400 ppm [10]: 100%
mortality at 400 ppm [11]: 100%
pest or weed control at 400 µg/mL [12]: 90 to 100%

Fc1cccc2c(NCCc3ccc(Oc4ccc(C(F)(F)F)cn4)cc3)ncnc12 [Compound 28, 8-Fluoro-4-(2-(4-(5-(trifluoromethyl)-2-pyridinyloxy)phenyl)ethylamino)quinazoline]
pest or weed control at 50 ppm [1]: 100%
pest or weed control at 400 ppm [1]: 100%
mortality at 50 ppm [2]: 100%
mortality at 400 ppm [2]: 100%
pest or weed control at 400 µg/mL [3]: 20 to 89%
mortality at 50 ppm [4]: 100%
mortality at 400 ppm [4]: 100%
pest or weed control at 400 µg/mL [5]: 90 to 100%
pest or weed control at 400 µg/mL [6]: 90 to 100%
mortality at 50 ppm [7]: 0%
mortality at 400 ppm [7]: 80%
mortality at 24 ppm [8]: 0%
pest or weed control at 400 µg/mL [9]: 90 to 100%
pest or weed control at 50 ppm [10]: 100%
pest or weed control at 400 ppm [10]: 100%
mortality at 50 ppm [11]: 100%
mortality at 400 ppm [11]: 100%
pest or weed control at 400 µg/mL [12]: 90 to 100%

FC(F)(F)c1ccc(Oc2ccc(CCNc3ncnc4ccccc34)cc2)nc1 [Compound 29]
pest or weed control at 50 ppm [1]: 100%
pest or weed control at 400 ppm [1]: 100%
mortality at 50 ppm [2]: 90%
mortality at 400 ppm [2]: 100%
pest or weed control at 400 µg/mL [3]: 90 to 100%
mortality at 50 ppm [4]: 100%
mortality at 400 ppm [4]: 100%
pest or weed control at 400 µg/mL [5]: 20 to 89%
pest or weed control at 400 µg/mL [6]: 90 to 100%
mortality at 50 ppm [7]: 0%
mortality at 400 ppm [7]: 20%
mortality at 24 ppm [8]: 100%
pest or weed control at 400 µg/mL [9]: 90 to 100%
pest or weed control at 50 ppm [10]: 100%
pest or weed control at 400 ppm [10]: 100%
mortality at 50 ppm [11]: 100%
mortality at 400 ppm [11]: 100%
pest or weed control at 400 µg/mL [12]: 90 to 100%

Fc1cccc2c(OCCc3ccc(Oc4cc(C(Cl)(Cl)Cl)cc(Cl)n4)cc3)ncnc12 [Compound 34]
pest or weed control at 50 ppm [1]: 0%
pest or weed control at 400 ppm [1]: 100%
mortality at 50 ppm [2]: 0%
mortality at 400 ppm [2]: 0%
pest or weed control at 400 µg/mL [3]: 20 to 89%
mortality at 50 ppm [4]: 0%
mortality at 400 ppm [4]: 0%
pest or weed control at 400 µg/mL [5]: 0 to 19%
pest or weed control at 400 µg/mL [6]: 0 to 19%
mortality at 50 ppm [7]: 0%
mortality at 400 ppm [7]: 0%
mortality at 24 ppm [8]: 0%
pest or weed control at 400 µg/mL [9]: 0 to 19%
pest or weed control at 50 ppm [10]: 0%
pest or weed control at 400 ppm [10]: 80%
mortality at 50 ppm [11]: 40%
mortality at 400 ppm [11]: 20%
pest or weed control at 400 µg/mL [12]: 20 to 89%

COc1cc(C(Cl)(Cl)Cl)cc(Oc2ccc(CCNc3ncnc4c(F)cccc34)cc2)n1 [Compound 35]
pest or weed control at 50 ppm [1]: 100%
pest or weed control at 400 ppm [1]: 100%
mortality at 50 ppm [2]: 0%
mortality at 400 ppm [2]: 0%
pest or weed control at 400 µg/mL [3]: 0 to 19%
mortality at 50 ppm [4]: 0%
mortality at 400 ppm [4]: 0%
pest or weed control at 400 µg/mL [5]: 0 to 19%
pest or weed control at 400 µg/mL [6]: 0 to 19%
mortality at 400 ppm [7]: 0%
mortality at 24 ppm [8]: 0%
pest or weed control at 400 µg/mL [9]: 0 to 19%
pest or weed control at 50 ppm [10]: 0%
pest or weed control at 400 ppm [10]: 80%
mortality at 50 ppm [11]: 0%
mortality at 400 ppm [11]: 80%
pest or weed control at 400 µg/mL [12]: 90 to 100%

c1cnc(Oc2ccc(CCOc3ncnc4ccccc34)cc2)nc1 [Compound 45]
pest or weed control at 50 ppm [1]: 100%
pest or weed control at 400 ppm [1]: 100%
mortality at 50 ppm [2]: 100%
mortality at 400 ppm [2]: 100%
pest or weed control at 400 µg/mL [3]: 90 to 100%
mortality at 50 ppm [4]: 40%
mortality at 400 ppm [4]: 60%
pest or weed control at 400 µg/mL [5]: 0 to 19%
pest or weed control at 400 µg/mL [6]: 90 to 100%
mortality at 50 ppm [7]: 0%
mortality at 400 ppm [7]: 20%
mortality at 24 ppm [8]: 0%
pest or weed control at 400 µg/mL [9]: 90 to 100%
pest or weed control at 50 ppm [10]: 100%
pest or weed control at 400 ppm [10]: 100%
mortality at 50 ppm [11]: 60%
mortality at 400 ppm [11]: 40%
pest or weed control at 400 µg/mL [12]: 90 to 100%
